Read-outs that look alike come from different tables or passages of the source.

A word on the ED50: it is the dose that gives a 50% effect, or the effect in half of the subjects.

Series [1] has as its system disturbances of the heart-beat rhythm. In words: Aconitine-induced disturbances of the heart rhythm, intravenous pretreatment. Type of series: in vivo, rats. Conditions: Rattus norvegicus, iv. The source says: The anti-arrhythmic effect of the new compounds can also be determined in intact test animals by experimentally-induced disturbances of the heart rhythm. If rats are continually infused intravenously with aconitine, serious disturbances of the heart-beat rhythm, such as extrasystoles, ventricular tachycardia, and ventricular flutter, which disturbances eventually lead to the death of the test animals, are evident in an electrocardiogram. […] Bianchi et al., Arzneim. Forsch. 18, 845 - 850 (1968); Haas and Busch, Arzneim. Forsch. 18, 401 - 407 (1968); Haas et al., Arzneim. Forsch. 21, 1392 - 1399 (1971); Marmo, Naunyn-Schmiedeberg's Arch. Pharmak. 269, 231 - 247 (1971); Strubelt et al., Naunym-Schmiedeberg's Arch. Pharmak. 271, 346 - 360 ( 1971)].
The ED25 and ED50 are the intravenous doses, in mg/kg, which raise the administered aconitine doses, in comparison with the aconitine control, by 25 percent or 50 percent prior to the appearance of extrasystoles, ventricular tachycardia, and ventricular flutter.

Series [2] can be described thus: Inotropic effect: contractile force of the heart muscle (left auricle). On the set-up: species or system guinea pig. Conditions: guinea pig, left auricle, Table 1; ratio inotropic ED25 / antiarrhythmic ED25; read-out: Therapeutic Breadth (III/II). From the text: (§1) Evidence of the anti-arrhythmic effect of the new compounds is obtained in experimental animals by determination of the functional refractory period of the left auricle of the guinea pig with the aid of paired electrical stimulation employing the method of […]. Pharmacol. Exp. Therap. 148, 100 - 105 (1965). In this experimental arrangement, those anti-arrhythmic agents already known for use in therapy, of differing structure and of different points of attack in the human, all distinguish themselves by lengthening the functional refractory period. The method additionally permits a determination of the effects of the substances on the contractile force of the heart muscle [cf. Reuter and Heeg, Naunyn-Schmiedeberg's Arch. Pharmak. 268, 323 - 333 (1971) and Zettler and Strubelt, Naunyn-Schmiedeberg's Arch. Pharmak. 271, 335 - 345 (1971)]. The testing of the substances in each case involves up to thirty individual experiments. For the dosage effect relationships, linear regression functions were calculated [[…] Methoden, 3rd Edition, Birkhaeuser Verlag, Basel (1969)], wherein the maximum percentage deviations from the starting value over a period of up to 60 minutes after addition of the test substance to the bath fluid were employed. In following Table 1, column I, the optical isomers of one of the compounds of the invention and known anti-arrhythmic agents are named. Column II reports their anti-arrhythmic effect. Column III gives the inotropic effect, and column IV represents the therapeutic breadth of the compounds. The ED25 is the effective dose which lengthens the refractory period by 25 percent or reduces the contractile force by 25 percent.

Series [3] concerns left auricle of the guinea pig. The series is described as follows: Functional refractory period of the left auricle, paired electrical stimulation (method of Govier). Conditions: Table 1; effective dose which lengthens the refractory period by 25 percent. From the text:
Evidence of the anti-arrhythmic effect of the new compounds is obtained in experimental animals by determination of the functional refractory period of the left auricle of the guinea pig with the aid of paired electrical stimulation employing the method of W. C. Govier, J. Pharmacol. Exp. Therap. 148, 100 - 105 (1965). In this experimental arrangement, those anti-arrhythmic agents already known for use in therapy, of differing structure and of different points of attack in the human, all distinguish themselves by lengthening the functional refractory period. The method additionally permits a determination of the effects of the substances on the contractile force of the heart muscle [cf. Reuter and Heeg, Naunyn-Schmiedeberg's Arch. Pharmak. 268, 323 - 333 (1971) and Zettler and Strubelt, Naunyn-Schmiedeberg's Arch. Pharmak. 271, 335 - 345 (1971)].
The testing of the substances in each case involves up to thirty individual experiments. For the dosage effect relationships, linear regression functions were calculated [A. Lindner, Statistische Methoden, 3rd Edition, Birkhaeuser Verlag, Basel (1969)], wherein the maximum percentage deviations from the starting value over a period of up to 60 minutes after addition of the test substance to the bath fluid were employed.
In following Table 1, column I, the optical isomers of one of the compounds of the invention and known anti-arrhythmic agents are named. Column II reports their anti-arrhythmic effect. Column III gives the inotropic effect, and column IV represents the therapeutic breadth of the compounds. The ED25 is the effective dose which lengthens the refractory period by 25 percent or reduces the contractile force by 25 percent.
The dose in each case is 10^^-5 millimoles/liter.

For series [4], the system named is left auricle of the guinea pig. In words: Inotropic effect: contractile force of the heart muscle (left auricle). Conditions: Table 1; effective dose which reduces the contractile force by 25 percent.
Description: as §1

For `COc1ccc(CC2(C)CN(C(c3ccccc3)c3ccccc3)CCN2C)cc1OC` (stereo not shown) [(D)-1-diphenylmethyl-3-methyl-3-(3,4-dimethoxybenzyl)-4-methyl-piperazine], the ED25 in series [1] (read-out: Extrasystoles ED25) was determined as 0.94 mg/kg; in series [1] (read-out: Ventricular Flutter ED25), 0.84 mg/kg; in series [1] (read-out: Ventricular Tachycardia ED25) it was 0.94 mg/kg. Also, the 50% effective dose (ED50) stood at 1.21 mg/kg in series [1] (read-out: Extrasystoles ED50), 1.23 mg/kg in series [1] (read-out: Ventricular Flutter ED50) and 1.26 mg/kg in series [1] (read-out: Ventricular Tachycardia ED50). For the same molecule, in series [2], the selectivity ratio worked out at 1.5.

For the molecule `c1ccc(CN(CC2=NCCN2)c2ccccc2)cc1` [Antazoline, reference compound], the “Antiarrhythmic Effect (Lengthening of the Refractory Period) ED25” value in series [3] is given as 0.164. Further, the “Inotropic Effect (Decrease in Contractile Force) ED25” value in series [4] stood at 0.094. Further, the selectivity ratio in series [2] was found to be 0.6.

The record behind these values is patent US3996360A, “Piperazine compounds” (Knoll A.G. Chemische Fabriken, priority 1974, dated 1976).
